Data reported in US20260306429A1, “COMPOSITION FOR REDUCING METHANE PRODUCTION AND IMPROVING NITROGEN UTILIZATION EFFICIENCY OF RUMINANT ANIMALS COMPRISING HALOACETAMIDE AS ACTIVE INGREDIENT” (CHUNGANG UNIVERSITY INDUSTRY ACADEMIC COOPERATION FOUNDATION, priority 2024, published 2026).

Legend:
[1] = in words; cited from earlier work
rumen fluid = assay: In vitro incubation of rumen fluid: digestibility, fermentation characteristics, gas and methane production, VFA; assay type: cell-based, Hanwoo cows; conditions: 0.2 mmol/L; for A:P ratio (acetate:propionate ratio) / DMD (dry matter digestibility) / NDFD (neutral detergent fiber digestibility) / NH3—N (ammonia nitrogen) / pH / Acetate / Butyrate / Isobutyrate / Isovalerate / Propionate / Valerate / Total VFA (total volatile fatty acids) / methane-reducing effects: 24 h; for CH4 (methane production per gram of degraded dry matter) / CH4 (methane production) / TGP (total gas production): up to 24 h; for methane-reducing effects: in words, from Table 1
Description: (§1) Rumen fluid was sampled from Hanwoo cows at the Nonghyup Research Farm in Anseong, Gyeonggi Province, and mixed with buffer at a ratio of 1:2 within 1 hour of sampling. Oat hay was used as the forage, and pelleted feed for the middle fattening period was used as the concentrate. After grinding, the forage and concentrate were mixed at a ratio of 1:1 after passing through a 1-mm screen. 50 ml of culture medium was dispensed into 0.5 g of dry matter, and the control group and the five experimental groups (acrylamide, chloroacetamide, glycolamide, iodoacetamide, and propionamide) were each incubated for 24 hours with five replicates. The control group was incubated in 50 mL of culture medium, whereas the experimental groups were incubated in 49.9 mL of culture medium plus 0.1 mL of deionized water. For the five experimental groups, the supplementation level of each amide was set to 0.2 mmol/L (final concentration), and the amounts added were 1.4216 mg/g for acrylamide, 1.8702 mg/g for 2-chloroacetamide, 1.4618 mg/g for propionamide, 1.5014 mg/g for glycolamide, and 3.6992 mg/g for iodoacetamide.
(§2) Gas pressure was measured at 0, 3, 6, 12, and 24 hours (gas collection intervals), and the gas released during each measurement was collected to determine the total gas production and methane production up to the final 24 hours. After completing the 24-hour incubation, pH, ammonia nitrogen (NH3—N), dry matter digestibility, neutral detergent fiber digestibility, volatile fatty acids (VFA), and the microbiome were analyzed.
(§3) Data conforming to normal distribution and homogeneity of variance were analyzed using the GLIMMIX procedure of SAS and Tukey's HSD test. […] Differences in the overall bacteriota and their functional profiles were analyzed using PERMANOVA. Differentially abundant microbial biomarkers were identified using multivariable association analysis with the MaAsLin2 R package, based on relatively abundant bacterial taxa and predicted microbial functions.

[2] = test system: Ruminococcus flavefaciens; assay: qPCR absolute quantification of Ruminococcus flavefaciens after in vitro rumen incubation; assay type: cell-based; conditions: 0.2 mmol/L, 24 h
Description: as §1, §2
(§4) Metagenomic DNA was extracted using the RBB+C method, followed by qPCR analysis and microbiome analysis. Microbial functions were predicted using PICRUSt2. Taxonomic drivers of differentially enriched MetaCyc pathways were identified using Fish Taco (Functional Shifts' Taxonomic Contributor).
as §3
(§5) For the control group and the five experimental groups (acrylamide, chloroacetamide, glycolamide, iodoacetamide, and propionamide), the effects of the amide compounds on the absolute quantification of total bacteria, methanogens, protozoa, and specific cellulolytic bacterial species (Fibrobacter succinogenes, Ruminococcus flavefaciens, Ruminococcus albus, and Prevotella ruminicola) are presented in Table 3 below as quantitative real-time PCR data.

Fibrobacter succinogenes = assay: qPCR absolute quantification of Fibrobacter succinogenes after in vitro rumen incubation; assay type: cell-based; conditions: 0.2 mmol/L, 24 h
Description: as §1, §2, §4, §3, §5

Total methanogen = assay: qPCR absolute quantification of methanogens after in vitro rumen incubation; assay type: cell-based, rumen fluid of Hanwoo cows; conditions: 0.2 mmol/L, 24 h
Description: as §1, §2, §4, §3, §5

Prevotella ruminicola = assay: qPCR absolute quantification of Prevotella ruminicola after in vitro rumen incubation; assay type: cell-based; conditions: 0.2 mmol/L, 24 h
Description: as §1, §2, §4, §3, §5

rumen microbiome = assay: Alpha-diversity measurements of the rumen microbiome; assay type: cell-based, rumen fluid of Hanwoo cows; conditions: 0.2 mmol/L, 24 h
Description: as §1, §2, §4, §3
The alpha-diversity measurements for the control group and the five experimental groups (acrylamide, chloroacetamide, glycolamide, iodoacetamide, and propionamide) are presented in Table 4 below.

Total bacteria = assay: qPCR absolute quantification of total bacteria after in vitro rumen incubation; assay type: cell-based, rumen fluid of Hanwoo cows; conditions: 0.2 mmol/L, 24 h
Description: as §1, §2, §4, §3, §5

Total protozoa = assay: qPCR absolute quantification of protozoa after in vitro rumen incubation; assay type: cell-based, rumen fluid of Hanwoo cows; conditions: 0.2 mmol/L, 24 h
Description: as §1, §2, §4, §3, §5

Ruminococcus albus = assay: qPCR absolute quantification of Ruminococcus albus after in vitro rumen incubation; assay type: cell-based; conditions: 0.2 mmol/L, 24 h
Description: as §1, §2, §4, §3, §5

rumen microbiota = assay: Differentially abundant genera and species in response to haloacetamide treatment; taxonomic drivers; assay type: cell-based, rumen fluid of Hanwoo cows; conditions: in words
Description: Rumen fluid was sampled from Hanwoo cows at the Nonghyup Research Farm in Anseong, Gyeonggi Province, and mixed with buffer at a ratio of 1:2 within 1 hour of sampling. Oat hay was used as the forage, and pelleted feed for the middle fattening period was used as the concentrate. After grinding, the forage and concentrate were mixed at a ratio of 1:1 after passing through a 1-mm screen. 50 ml of culture medium was dispensed into 0.5 g of dry matter, and the control group and the five experimental groups (acrylamide, chloroacetamide, glycolamide, iodoacetamide, and propionamide) were each incubated for 24 hours with five replicates. […]
as §2, with “analyzed. […]” for “analyzed.”
Data conforming to normal distribution and homogeneity of variance were analyzed using the GLIMMIX procedure of SAS and Tukey's HSD test. […] Differences in the overall bacteriota and their functional profiles were analyzed using PERMANOVA. […]

SMILES	A:P ratio (acetate:propionate ratio) (rumen fluid)	DMD (dry matter digestibility) (rumen fluid)	NDFD (neutral detergent fiber digestibility) (rumen fluid)	NH3—N (ammonia nitrogen) (rumen fluid)	pH (rumen fluid)	Acetate (rumen fluid; VFA composition)	Butyrate (rumen fluid; VFA composition)	Isobutyrate (rumen fluid; VFA composition)	Isovalerate (rumen fluid; VFA composition)	Propionate (rumen fluid; VFA composition)	Valerate (rumen fluid; VFA composition)	Acetate (rumen fluid; concentration)	Butyrate (rumen fluid; concentration)	Isobutyrate (rumen fluid; concentration)	Isovalerate (rumen fluid; concentration)	Propionate (rumen fluid; concentration)	Total VFA (total volatile fatty acids) (rumen fluid; concentration)	Valerate (rumen fluid; concentration)	CH4 (methane production per gram of degraded dry matter) (rumen fluid)	CH4 (methane production) (rumen fluid)	also measured
O=[N+]([O-])OCCCO [3-NOP, 3-nitrooxypropanol]																					toxicity / safety [1]: issues related to residues in the animal body and safety
C=CC(N)=O [AA, acrylamide]	3.03^A	78.14^AB %	42.04^B %	16.61^A mg/dL	6.21	61.85^A %	13.87^B %	0.88%	1.23^ABC %	20.42^C %	1.76^B %	43.81^A mM	9.82^AB mM	0.62^A mM	0.87^A mM	14.45^AB mM	70.82^A mM	1.24 mM	29.06^A mL/g dDM	11.35^A mL	TGP (total gas production) (rumen fluid): 145.83^A mL; Ruminococcus flavefaciens (absolute quantification, qPCR) [2]: 8.31^B; Fibrobacter succinogenes (absolute quantification, qPCR) (Fibrobacter succinogenes): 9.39^C; Total methanogen (absolute quantification, qPCR) (Total methanogen): 8.38^A; Prevotella ruminicola (absolute quantification, qPCR) (Prevotella ruminicola): 9.44^C; Chao1 (rumen microbiome): 284.8^B; Evenness (rumen microbiome): 0.8823^B; Observed features (rumen microbiome): 284.8^B; Shannon (rumen microbiome): 7.1896^B; Simpson (rumen microbiome): 0.9883^B; Total bacteria (absolute quantification, qPCR) (Total bacteria): 10.30^AB; Total protozoa (absolute quantification, qPCR) (Total protozoa): 9.78; Ruminococcus albus (absolute quantification, qPCR) (Ruminococcus albus): 7.77^B
NC(=O)CCl [CLA, 2-chloroacetamide]	2.34^B	77.82^AB %	43.61^B %	13.90^B mg/dL	6.19	55.96^B %	16.30^A %	0.80%	1.09^BC %	23.89^B %	1.95^AB %	35.41^BC mM	10.25^A mM	0.50^BC mM	0.68^B mM	15.07^AB mM	63.14^AB mM	1.22 mM	10.71^C mL/g dDM	4.17^C mL	differentially abundant bacteria (rumen microbiota): increases bacteria belonging to the genera Fibrobacter, Anaeroplasma, Treponema, and Succinivibrio, and the species Ruminococcus albus; methane-reducing effects (rumen fluid): excellent methane-reducing effects; TGP (total gas production) (rumen fluid): 134.49^B mL; Ruminococcus flavefaciens (absolute quantification, qPCR) [2]: 8.27^B; Fibrobacter succinogenes (absolute quantification, qPCR) (Fibrobacter succinogenes): 9.54^B; Total methanogen (absolute quantification, qPCR) (Total methanogen): 8.05^AB; Prevotella ruminicola (absolute quantification, qPCR) (Prevotella ruminicola): 9.58^B; Chao1 (rumen microbiome): 382.3^AB; Evenness (rumen microbiome): 0.8847^AB; Observed features (rumen microbiome): 380.8^AB; Shannon (rumen microbiome): 7.5719^AB; Simpson (rumen microbiome): 0.9903^AB; Total bacteria (absolute quantification, qPCR) (Total bacteria): 10.28^B; Total protozoa (absolute quantification, qPCR) (Total protozoa): 9.77; Ruminococcus albus (absolute quantification, qPCR) (Ruminococcus albus): 7.96^A
NC(=O)CO [GA, glycolamide]	2.92^A	79.40^A %	40.82^B %	14.76^AB mg/dL	6.22	60.74^A %	14.30^B %	0.93%	1.32^A %	20.83^C %	1.88^AB %	37.24^ABC mM	8.74^B mM	0.57^AB mM	0.80^A mM	12.77^B mM	61.27^AB mM	1.15 mM	26.85^B mL/g dDM	10.65^B mL	TGP (total gas production) (rumen fluid): 141.74^A mL; Ruminococcus flavefaciens (absolute quantification, qPCR) [2]: 8.29^B; Fibrobacter succinogenes (absolute quantification, qPCR) (Fibrobacter succinogenes): 9.36^C; Total methanogen (absolute quantification, qPCR) (Total methanogen): 8.33^A; Prevotella ruminicola (absolute quantification, qPCR) (Prevotella ruminicola): 9.42^C; Chao1 (rumen microbiome): 436.4^AB; Evenness (rumen microbiome): 0.8956^A; Observed features (rumen microbiome): 435.6^AB; Shannon (rumen microbiome): 7.8466^A; Simpson (rumen microbiome): 0.9927^A; Total bacteria (absolute quantification, qPCR) (Total bacteria): 10.25^B; Total protozoa (absolute quantification, qPCR) (Total protozoa): 9.69; Ruminococcus albus (absolute quantification, qPCR) (Ruminococcus albus): 7.71^B
NC(=O)CI [IA, iodoacetamide]	1.89^C	76.18^B %	47.83^A %	13.16^B mg/dL	6.19	52.09^C %	16.51^A %	0.76%	1.02^C %	27.56^A %	2.06^A %	29.92^C mM	9.45^AB mM	0.43^C mM	0.58^B mM	15.80^A mM	59.25^B mM	1.18 mM	0.60^D mL/g dDM	0.23^D mL	differentially abundant bacteria (rumen microbiota): increases bacteria belonging to the genera Fibrobacter, Pseudobutyrivibrio, and Treponema, and the species Ruminococcus flavefaciens; methane-reducing effects (rumen fluid): excellent methane-reducing effects; TGP (total gas production) (rumen fluid): 129.37^B mL; Ruminococcus flavefaciens (absolute quantification, qPCR) [2]: 8.51^A; Fibrobacter succinogenes (absolute quantification, qPCR) (Fibrobacter succinogenes): 9.79^A; Total methanogen (absolute quantification, qPCR) (Total methanogen): 7.74^B; Prevotella ruminicola (absolute quantification, qPCR) (Prevotella ruminicola): 9.72^A; Chao1 (rumen microbiome): 525.3^A; Evenness (rumen microbiome): 0.8895^AB; Observed features (rumen microbiome): 520.6^A; Shannon (rumen microbiome): 8.0215^A; Simpson (rumen microbiome): 0.9925^A; Total bacteria (absolute quantification, qPCR) (Total bacteria): 10.38^A; Total protozoa (absolute quantification, qPCR) (Total protozoa): 9.68; Ruminococcus albus (absolute quantification, qPCR) (Ruminococcus albus): 7.83^AB
CCC(N)=O [PA, propionamide]	2.96^A	78.34^AB %	41.80^B %	16.50^A mg/dL	6.22	60.97^A %	14.31^B %	0.92%	1.30^AB %	20.64^C %	1.86^AB %	38.55^AB mM	9.04^AB mM	0.58^AB mM	0.82^A mM	13.04^B mM	63.20^AB mM	1.17 mM	28.32^AB mL/g dDM	11.09^AB mL	TGP (total gas production) (rumen fluid): 143.63^A mL; Ruminococcus flavefaciens (absolute quantification, qPCR) [2]: 8.31^B; Fibrobacter succinogenes (absolute quantification, qPCR) (Fibrobacter succinogenes): 9.35^C; Total methanogen (absolute quantification, qPCR) (Total methanogen): 8.42^A; Prevotella ruminicola (absolute quantification, qPCR) (Prevotella ruminicola): 9.45^C; Chao1 (rumen microbiome): 406.2^AB; Evenness (rumen microbiome): 0.8873^AB; Observed features (rumen microbiome): 405.6^AB; Shannon (rumen microbiome): 7.6692^A; Simpson (rumen microbiome): 0.9913^AB; Total bacteria (absolute quantification, qPCR) (Total bacteria): 10.27^B; Total protozoa (absolute quantification, qPCR) (Total protozoa): 9.79; Ruminococcus albus (absolute quantification, qPCR) (Ruminococcus albus): 7.71^B
BrC(Br)Br [bromoform]																					toxicity / safety [1]: carcinogenic substance
